Like-named read-outs stand apart in the source and are kept apart here.
Key:
[1] = test system: NCI-H358 cells (KRAS G12C mutant cell line); experiment: Inhibition of NCI-H358 cell proliferation (CellTiter-Glo, 72 h); type: cell-based, human
From the text: (§1) As a preferred embodiment of the present disclosure, the detection method of NCI-H358 cell proliferation inhibitory activity and Mia PaCa-2 cell proliferation inhibitory activity is as follows: through cell culture, adding different concentrations of compound solutions to the cultured cells, continuing the culture for a period of time and measuring the cell proliferation; • further, the method of cell culture is: adjusting the cells to a suitable cell concentration with complete medium and spreading the cell suspension in well plates for culture; preferably, the culture conditions are 37° C., 5% CO2 incubator overnight; preferably, the cell suspension is spread in 96-well plates, 48-well plates, 24-well plates, 12-well plates or 6-well plates, more preferably 96-well plates; preferably, the suitable cell concentration is 1500-4000 cells/well, with 90 μL of cell suspension added to each well; • further, the compound solution is prepared with DMSO and may be further diluted with medium; preferably, the compound solution has a concentration gradient starting from 100 μM at 4-fold dilution, more preferably starting from 30 μM at 4-fold dilution, most preferably starting from 10 μM at 4-fold dilution; • further, the volume of the compound solution or solvent added to each well is 1-10 μL, preferably 10 μL; • further, after adding the compound solution, the conditions for continuing the culture are 37° C., 5% CO2 incubator; preferably, the culture time is 24-72 h, more preferably 72 h; • further, the method for measuring cell proliferation is MTT, CCK8, CellTiter-Glo; preferably the method is CellTiter-Glo; • further, the cell proliferation is read using a microplate reader, more preferably a BioTek Synergy H1 microplate reader.
(§2) When NCI-H358 or Mia PaCa-2 cells were cultured to the appropriate fusion level, the NCI-H358 or Mia PaCa-2 cells were collected, and the cells were adjusted to the appropriate cell concentration using a complete medium, and the cell suspension was spread in a 96-well plate, 90 μL per well, and placed in a 37° C., 5% CO2 incubator overnight; and compound solutions of different concentrations were prepared using DMSO and culture medium; and a solvent control was set, the compound solution was added to a 96-well plate, 10 μL per well, at 37° C. in a 5% CO2 incubator for 72 hours; CellTiter-Glo solution was added thereto and the mixture was mixed well by shaking, incubated for 10 min in the dark, and read by BioTek Synergy H1 microplate reader.
(§3) The luminescence signal values were used to calculate the inhibition rate, the concentration and the inhibition rate were fitted to a nonlinear regression curve using Graphpad Prism software, then the IC50 value was obtained.

[2] = test system: Mia PaCa-2 cells (KRAS G12C mutant cell line); experiment: Inhibition of Mia PaCa-2 cell proliferation (CellTiter-Glo, 72 h); type: cell-based, human
From the text: as §1, §2, §3

human KRAS G12C protein = molecular target: T1, human KRAS G12C protein (Homo sapiens, UniProt P01116, G12C); experiment: Thermal shift: melting temperature of KRAS G12C protein; type: binding; conditions: for Tm (° C.): KRAS G12C protein 5.37 μM with compound 10 μM, 1 hour incubation; for ΔTm (° C.) / ΔTm at 10 µM: compound 10 μM, Tm minus Tm of DMSO solvent control
T1 construct: purchased Beijing SinoBiological Co., Ltd. 12259-H07E2
Experimental: A solution containing […] (pH 7.5), 1 mM DTT, 5×SYPRO Orange and 150 mM NaCl was prepared as the experimental buffer, and a final concentration of 5.37 μM human KRAS G12C protein was added thereto. […] After incubating at room temperature in the dark for 1 hour, the PCR tube was put into the PCR instrument, QuantStudio Software v1.3 was opened, and the melting temperature of KRAS G12C protein in different treatment groups was detected by melt curve function (heating from 25° C. to 95° C., 0.03° C./s). The experimental data file of PCR instrument was imported into thermal shift software, and the melting temperature (Tm) of each treatment group was obtained, and the change value of melting temperature (Δ Tm) was obtained by subtracting the Tm of DMSO solvent control group.

SMILES	IC50 [1] [µM]	IC50 [2] [µM]	Tm (° C.) (human KRAS G12C protein) [°C]	ΔTm (° C.) (human KRAS G12C protein) [°C]	IC50 ([1]; Homo sapiens) [µM]	IC50 ([2]; Homo sapiens) [µM]	ΔTm at 10 µM (human KRAS G12C protein) [°C]
C=CC(=O)N1CCN(c2nc(=O)n(-c3c(C)ccnc3CC(C)C)c3nc(-c4c(F)cccc4SCC)c(F)cc23)[C@@H](C)C1 [Embodiment 118]	0.089	0.082	59.0	8.4			
C=CC(=O)N1CCN(c2nc(=O)n(-c3c(S(C)(=O)=O)ccnc3C(C)C)c3nc(-c4c(O)cccc4F)c(Cl)cc23)[C@@H](C)C1 [Embodiment 155, 4-((S)-4-acryloyl-2-methylpiperazin-1-yl)-6-chloro-7-(2-fluoro-6-hydroxyphenyl)-1-(2-isopropyl-4-(methylsulfonyl)pyridin-3-yl) pyrido [2,3-d] pyrimidin-2 (1H)-one]			60.9		0.024	0.026	11.1
C=CC(=O)N1CCN(c2nc(=O)n(-c3c([S+](C)[O-])ccnc3C(C)C)c3nc(-c4c(N)c(Cl)cc(Cl)c4F)c(Cl)cc23)[C@@H](C)C1 (stereo partly drawn) [Embodiment 192, 4-((S)-4-acryloyl-2-methylpiperazin-1-yl)-7-(2-amino-3,5-dichloro-6-fluorophenyl)-6-chloro-1-(2-isopropyl-4-(methylsulfinyl)pyridin-3-yl) pyrido [2,3-d] pyrimidin-2 (1H)-one]					0.029	0.013	
C=CC(=O)N1C[C@H](C)N(c2nc(=O)n(-c3c(SC)ccnc3C(C)C)c3nc(-c4c(N)ccc(Cl)c4F)c(Cl)cc23)C[C@H]1C [Embodiment 165, 4-((2S, 5R)-4-acryloyl-2,5-dimethylpiperazin-1-yl)-7-(6-amino-3-chloro-2-fluorophenyl)-6-chloro-1-(2-isopropyl-4-(methylthio)pyridin-3-yl) pyrido [2,3-d] pyrimidin-2 (1H)-one]			58.0		0.0059	0.0076	11
C=CC(=O)N1C[C@H](C)N(c2nc(=O)n(-c3c(SC)ccnc3C(C)C)c3nc(-c4c(O)cccc4F)c(Cl)cc23)C[C@H]1C [Embodiment 166, 4-((2S, 5R)-4-acryloyl-2,5-dimethylpiperazin-1-yl)-6-chloro-7-(2-fluoro-6-hydroxyphenyl)-1-(2-isopropyl-4-(methylthio)pyridin-3-yl) pyrido [2,3-d] pyrimidin-2 (1H)-one]					0.016	0.023	
C=CC(=O)N1CCN(c2nc(=O)n(-c3c(SC)ccnc3C(C)C)c3nc(-c4c(N)ccc(Cl)c4F)c(Cl)cc23)[C@@H](C)C1 [Embodiment 150, 4-((S)-4-acryloyl-2-methylpiperazin-1-yl)-7-(6-amino-3-chloro-2-fluorophenyl)-6-chloro-1-(2-isopropyl-4-(methylthio)pyridin-3-yl) pyrido [2,3-d] pyrimidin-2 (1H)-one]			60.2		0.0054	0.0086	13.4
C=CC(=O)N1CCN(c2nc(=O)n(-c3c(SC)ccnc3C(C)C)c3nc(-c4c(N)c(Cl)cc(Cl)c4F)c(Cl)cc23)[C@@H](C)C1 [Embodiment 191, 4-((s)-4-acryloyl-2-methylpiperazine-1-yl)-7-(2-amino-3,5-dichloro-6-fluorophenyl)-6-chloro-1-(2-isopropyl-4-(methylthio)pyridin-3-yl) pyrido [2,3-d] pyrimidin-2 (1H)-one]					0.032	0.016	
C=CC(=O)N1CCN(c2nc(=O)n(-c3c(C)ccnc3C(C)C)c3nc(-c4ccccc4SC)c(F)cc23)[C@@H](C)C1 [Embodiment 138]	0.067	0.104	59.4	8.8			

Results, then the molecule that gave them:

IC50 [1] [µM]	IC50 [2] [µM]	Tm (° C.) (human KRAS G12C protein) [°C]	ΔTm (° C.) (human KRAS G12C protein) [°C]	IC50 ([1]; Homo sapiens) [µM]	IC50 ([2]; Homo sapiens) [µM]	ΔTm at 10 µM (human KRAS G12C protein) [°C]	SMILES
0.079	0.068						C=CC(=O)N1CCN(c2nc(=O)n(-c3c(SC)ccnc3C(C)C)c3nc(-c4c(F)cccc4F)c(F)cc23)[C@@H](C)C1 [Embodiment 169, (S)-4-(4-acryloyl-2-methylpiperazin-1-yl)-7-(2,6-difluorophenyl)-6-fluoro-1-(2-isopropyl-4-(methylthio)pyridin-3-yl) pyrido [2,3-d] pyrimidin-2 (1H)-one]
				0.025	0.036		C=CC(=O)N1CCN(c2nc(=O)n(-c3c(C)ccnc3C(C)C)c3nc(-c4c(F)cccc4SC)c(F)cc23)[C@@H](C)C1 (single isomer, unassigned) [Embodiment 75-1]
				0.025	0.046		C=CC(=O)N1CCN(c2nc(=O)n(-c3c(S(C)(=O)=O)ccnc3C(C)C)c3nc(-c4c(O)cccc4F)c(F)cc23)[C@@H](C)C1 [Embodiment 133, 4-((S)-4-acryloyl-2-methylpiperazin-1-yl)-6-fluoro-7-(2-fluoro-6-hydroxyphenyl)-1-(2-isopropyl-4-(methylsulfonyl)pyridin-3-yl) pyrido [2,3-d] pyrimidin-2 (1H)-one]
		60.0		0.045	0.091	11.4	C=CC(=O)N1CCN(c2nc(=O)n(-c3c(SC)cc(C)nc3C(C)C)c3nc(-c4c(O)cccc4F)c(F)cc23)[C@@H](C)C1 [Embodiment 152, 4-((S)-4-acryloyl-2-methylpiperazin-1-yl)-6-fluoro-7-(2-fluoro-6-hydroxyphenyl)-1-(2-isopropyl-6-methyl-4-(methylthio)pyridin-3-yl) pyrido [2,3-d] pyrimidin-2 (1H)-one]
0.014	0.041	61.5	10.9				C=CC(=O)N1CCN(c2nc(=O)n(-c3c(SC)ccnc3C(C)C)c3nc(-c4c(O)cccc4F)c(Cl)cc23)[C@@H](C)C1 [Embodiment 130]
				0.039	0.059		C=CC(=O)N1CCN(c2nc(=O)n(-c3c(SC)ccnc3C(C)C)c3nc(-c4c(N)ccc(Cl)c4F)c(F)cc23)[C@@H](C)C1 [Embodiment 151, 4-((S)-4-acryloyl-2-methylpiperazin-1-yl)-7-(6-amino-3-chloro-2-fluorophenyl)-6-fluoro-1-(2-isopropyl-4-(methylthio)pyridin-3-yl)pyrido[2,3-d]pyrimidin-2(1H)-one]
0.048	0.047	61.2	11.7				C=CC(=O)N1CCN(c2nc(=O)n(-c3c(SC)ccnc3C(C)C)c3nc(-c4c(F)cccc4SC)c(F)cc23)[C@@H](C)C1 [Embodiment 131]
		61.2		0.024	0.034	10.6	C=CC(=O)N1CCN(c2nc(=O)n(-c3c(C)ccnc3C(C)C)c3nc(-c4c(F)cccc4SC)c(F)cc23)[C@@H](C)C1 [Embodiment 75, (S)-4-(4-acryloyl-2-methylpiperazin-1-yl)-6-fluoro-7-(2-fluoro-6-(methylthio)phenyl)-1-(2-isopropyl-4-methylpyridin-3-yl) pyrido[2,3-d]pyrimidin-2 (1H)-one]
		60.2		0.04	0.06	11.6	C=CC(=O)N1CCN(c2nc(=O)n(-c3c(SC)ccnc3C(C)C)c3nc(-c4c(O)cccc4F)c(F)cc23)[C@@H](C)C1 [Embodiment 60, 4-((S)-4-acryloyl-2-methylpiperazin-1-yl)-6-fluoro-7-(2-fluoro-6-hydroxyphenyl)-1-(2-isopropyl-4-(methylthio)pyridin-3-yl)pyrido[2,3-d]pyrimidin-2(1H)-one]
		60.4		0.117	0.12	9.8	C=CC(=O)N1CCN(c2nc(=O)n(-c3c(C)ccnc3C(C)C)c3nc(-c4c(F)cccc4S(C)(=O)=O)c(F)cc23)[C@@H](C)C1 [Embodiment 77, (S)-4-(4-acryloyl-2-methylpiperazin-1-yl)-6-fluoro-1-(2-isopropyl-4-methylpyridin-3-yl)-7-(2-(methylsulfonyl-6-fluoro)phenyl) pyrido [2,3-d] pyrimidin-2 (1H)-one]
